Measurements reported in patent publication US9850277B2, “Therapeutically active compositions and their methods of use” (AGIOS PHARMACEUTICALS, INC, priority 2013, dated 2017).

Experiments:
[1] = biological target: IDH1 R132C (Homo sapiens (Human), UniProt O75874, R132C); assay: In vitro NADPH depletion assay for IDH1m R132C inhibitors; assay type: biochemical; settings: IDH1 R132C enzyme, read-out: IDH R132C IC50
Method: (§1) A test compound is prepared as 10 mM stock in DMSO and diluted to 50× final concentration in DMSO, for a 50 μl reaction mixture. IDH enzyme activity converting alpha-ketoglutarate to 2-hydroxyglutaric acid is measured using a NADPH depletion assay. In the assay the remaining cofactor is measured at the end of the reaction with the addition of a catalytic excess of diaphorase and resazurin, to generate a fluorescent signal in proportion to the amount of NADPH remaining. […] The reaction is started with the addition of 10 μl of Substrate Mix ([…], 5 mM alpha-ketoglutarate, in Assay Buffer) and the mixture is incubated for 90 minutes at room temperature.
The concentration of NADPH and alpha-ketoglutarate in the Substrate Buffer is 20 μM and 1 mM, respectively.

[2] = biological target: IDH1 R132H (Homo sapiens (Human), UniProt O75874, R132H); assay: In vitro NADPH depletion assay for IDH1m R132H inhibitors; assay type: biochemical; settings: IDH1 R132H enzyme, read-out: IDH R132H IC50
Method: as §1

[3] = test system: U87MG cells; assay: Cellular assay, inhibition of 2-HG production in U87MG cells; assay type: cell-based; settings: 48 hours
Method: Cells (HT1080 or U87MG) are grown in T125 flasks in DMEM containing 10% FBS, 1× penicillin/streptomycin and 500 ug/mL G418 (present in U87MG cells only). They are harvested by trypsin and seeded into 96 well white bottom plates at a density of 5000 cell/well in 100 ul/well in DMEM with 10% FBS. […] Cells are incubated overnight at 37° C. in 5% CO2. The next day test compounds are made up at 2× the final concentration and 100 ul are added to each cell well. The final concentration of DMSO is 0.2% and the DMSO control wells are plated in row G. The plates are then placed in the incubator for 48 hours. […] The cell plate is placed back in the incubator for another 24 hours. At 72 hours post compound addition, 10 mL/plate of Promega Cell Titer Glo reagent is thawed and mixed. The cell plate is removed from the incubator and allowed to equilibrate to room temperature. Then 100 ul of Promega Cell Titer Glo reagent is added to each well of media. The cell plate is then placed on an orbital shaker for 10 minutes and then allowed to sit at room temperature for 20 minutes. The plate is then read for luminescence with an integration time of 500 ms.

Chain of IDH1 R132H (O75874 whole entry R132H): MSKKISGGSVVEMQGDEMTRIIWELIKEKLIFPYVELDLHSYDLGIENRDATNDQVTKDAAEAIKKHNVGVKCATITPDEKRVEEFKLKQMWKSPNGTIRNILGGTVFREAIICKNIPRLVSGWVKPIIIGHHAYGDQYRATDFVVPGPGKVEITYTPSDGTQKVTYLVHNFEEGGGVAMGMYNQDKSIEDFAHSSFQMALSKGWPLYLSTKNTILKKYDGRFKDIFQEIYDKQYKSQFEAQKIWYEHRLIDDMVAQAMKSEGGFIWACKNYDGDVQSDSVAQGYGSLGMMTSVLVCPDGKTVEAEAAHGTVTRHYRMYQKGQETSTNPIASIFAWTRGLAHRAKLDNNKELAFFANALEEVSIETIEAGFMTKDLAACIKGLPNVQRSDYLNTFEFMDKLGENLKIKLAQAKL
Chain of IDH1 R132C (O75874 whole entry R132C): as the sequence (O75874 whole entry R132H) above, with H132C counted along it

IC50 [1] [nM]	IC50 [2] [nM]	Molecule	IC50 [3] [nM]
100 to 500	100 to 500	O=C(NC1CC(F)(F)C1)[C@H](c1ccccc1Cl)N(C(=O)[C@@H]1CCC(=O)N1c1cccc(F)n1)c1cccc(F)c1 [Compound 11]	–
–	–	(S)—N—((S)-1-(2-Chlorophenyl)-2-((4,4-difluorocyclohexyl)amino)-2-oxoethyl)-1-(4-cyanopyridin-2-yl)-N-(1H-indazol-6-yl)-5-oxopyrrolidine-2-carboxamide [Compound 136]	< 100
–	–	(S)-tert-butyl 3-(((S)-1-(2-chlorophenyl)-2-((3,3-difluorocyclobutyl) amino)-2-oxoethyl)(3,5-difluorophenyl)carbamoyl)-5-oxopiperazine-1-carboxylate [Compound 97]	< 100
–	100 to 500	O=C(NC1CC(F)(F)C1)C(c1ccccc1Cl)N(C(=O)[C@@H]1CCC(=O)N1c1cccnc1)c1cccc(F)c1 (stereo partly shown) [Compound 10]	–
–	–	(S)—N—((S)-1-(2-Chlorophenyl)-2-(3,3-difluorocyclobutylamino)-2-oxoethyl)-N-(3-cyano-5-fluorophenyl)-3-(3-cyanophenyl)-2-oxooxazolidine-4-carboxamide [Compound 134]	< 100
–	–	(S)—N—((S)-1-(2-Chlorophenyl)-2-((3,3-difluorocyclobutyl)amino)-2-oxoethyl)-1-(4-cyanopyridin-2-yl)-N-(1H-indazol-6-yl)-5-oxopyrrolidine-2-carboxamide [Compound 205]	< 100
–	–	(S)-1-(4-Cyanopyridin-2-yl)-N—((S)-1-(2,4-dichlorophenyl)-2-((3,3-difluorocyclobutyl)-amino)-2-oxoethyl)-N-(3,5-difluorophenyl)-5-oxopyrrolidine-2-carboxamide [Compound 196]	< 100
–	–	N#Cc1cccc(N2C(=O)OC[C@H]2C(=O)N(c2cccc3cn[nH]c23)[C@H](C(=O)NC2CCC(F)(F)CC2)c2ccccc2Cl)c1 [Compound 142, (S)—N—((S)-1-(2-Chlorophenyl)-2-(4,4-difluorocyclohexylamino)-2-oxoethyl)-3-(3-cyanophenyl)-N-(1H-indazol-7-yl)-2-oxooxazolidine-4-carboxamide]	< 100
100 to 500	100 to 500	O=C(NC1CC(F)(F)C1)[C@H](c1ccccc1Cl)N(C(=O)[C@@H]1CCC(=O)N1c1nccc2ccccc12)c1cccc(F)c1 [Compound 16]	–
–	100 to 500	COc1cccnc1N1C(=O)CC[C@H]1C(=O)N(c1cccc(F)c1)[C@H](C(=O)NC1CC(F)(F)C1)c1ccccc1Cl [Compound 17]	–
–	–	(S)—N—((S)-1-(2-Chlorophenyl)-2-(3,3-difluorocyclobutylamino)-2-oxoethyl)-1-(3-cyano-phenyl)-N-(1H-indazol-7-yl)-5-oxopyrrolidine-2-carboxamide [Compound 186]	< 100
